According to the supplement of paper PMC9402605:

Columns and labels:
Test in all cases: number of L4/adult animals relative to DMSO control (development) (fraction of control); higher = more growth (less toxic); extreme values may be limits of the assay
Settings in all cases: concentration unit: uM
CB1072 unc-29(e1072) = test system: CB1072 unc-29(e1072)
Procedure: (§1)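 About 20 L1 larvae of wild-type or anthelmintic-resistant C. elegans strains were grown in 96-well plates with HB101 E. coli and a compound dilution series (0.6% DMSO). The number of L4/adult animals was counted after 72 h (day 7 for the slow-growing PR1152) and normalised to DMSO wells. Values are the mean of 3 biological replicates, each done in technical triplicate.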

CB3474 ben-1(e1880) = test system: CB3474 ben-1(e1880)
Procedure: as §1

CF1038 daf-16(mu86) = test system: CF1038 daf-16(mu86)
Procedure: as §1

[1] = test system: DA1316 avr-14;avr-15;glc-1
Procedure: as §1

N2 = test system: N2
Procedure: as §1

NM1968 slo-1(js379) = test system: NM1968 slo-1(js379)
Procedure: as §1

PR1152 cha-1(p1152) = test system: PR1152 cha-1(p1152)
Procedure: as §1

RB2119 acr-23(ok2804) = test system: RB2119 acr-23(ok2804)
Procedure: as §1

RP2674 mev-1(tr393) = test system: RP2674 mev-1(tr393)
Procedure: as §1

VC731 unc-63(ok1075) = test system: VC731 unc-63(ok1075)
Procedure: as §1

## c1ccc([C@H]2CN3CCSC3=N2)cc1 [levamisole]
CB1072 unc-29(e1072); concentration: 9.375
  number of L4/adult animals: 1.09
CB1072 unc-29(e1072); concentration: 18.75
  number of L4/adult animals: 1.07
CB1072 unc-29(e1072); concentration: 37.5
  number of L4/adult animals: 1.1
CB1072 unc-29(e1072); concentration: 75
  number of L4/adult animals: 1.01
CB1072 unc-29(e1072); concentration: 150
  number of L4/adult animals: 1.08
CB1072 unc-29(e1072); concentration: 300
  number of L4/adult animals: 0.988
CB1072 unc-29(e1072); concentration: 600
  number of L4/adult animals: 1.04
CB3474 ben-1(e1880); concentration: 9.375
  number of L4/adult animals: 0.906
CB3474 ben-1(e1880); concentration: 18.75
  number of L4/adult animals: 0.964
CB3474 ben-1(e1880); concentration: 37.5
  number of L4/adult animals: 1.06
CB3474 ben-1(e1880); concentration: 75
  number of L4/adult animals: 0.914
CB3474 ben-1(e1880); concentration: 150
  number of L4/adult animals: 0.627
CB3474 ben-1(e1880); concentration: 300
  number of L4/adult animals: 0.403
CB3474 ben-1(e1880); concentration: 600
  number of L4/adult animals: 0.0551
CF1038 daf-16(mu86); concentration: 9.375
  number of L4/adult animals: 0.606
CF1038 daf-16(mu86); concentration: 18.75
  number of L4/adult animals: 0.91
CF1038 daf-16(mu86); concentration: 37.5
  number of L4/adult animals: 1.01
CF1038 daf-16(mu86); concentration: 75
  number of L4/adult animals: 0.827
CF1038 daf-16(mu86); concentration: 150
  number of L4/adult animals: 0.678
CF1038 daf-16(mu86); concentration: 300
  number of L4/adult animals: 0.335
CF1038 daf-16(mu86); concentration: 600
  number of L4/adult animals: 0.0591
[1]; concentration: 9.375
  number of L4/adult animals: 0.774
[1]; concentration: 18.75
  number of L4/adult animals: 1.01
[1]; concentration: 37.5
  number of L4/adult animals: 0.984
[1]; concentration: 75
  number of L4/adult animals: 0.871
[1]; concentration: 150
  number of L4/adult animals: 0.487
[1]; concentration: 300
  number of L4/adult animals: 0.106
[1]; concentration: 600
  number of L4/adult animals: 0.00556
N2; concentration: 9.375
  number of L4/adult animals: 0.964
N2; concentration: 18.75
  number of L4/adult animals: 0.973
N2; concentration: 37.5
  number of L4/adult animals: 1.05
N2; concentration: 75
  number of L4/adult animals: 1.08
N2; concentration: 150
  number of L4/adult animals: 0.535
N2; concentration: 300
  number of L4/adult animals: 0.218
N2; concentration: 600
  number of L4/adult animals: 0.0242
NM1968 slo-1(js379); concentration: 9.375
  number of L4/adult animals: 0.888
NM1968 slo-1(js379); concentration: 18.75
  number of L4/adult animals: 0.984
NM1968 slo-1(js379); concentration: 37.5
  number of L4/adult animals: 0.95
NM1968 slo-1(js379); concentration: 75
  number of L4/adult animals: 0.856
NM1968 slo-1(js379); concentration: 150
  number of L4/adult animals: 0.595
NM1968 slo-1(js379); concentration: 300
  number of L4/adult animals: 0.0768
NM1968 slo-1(js379); concentration: 600
  number of L4/adult animals: 0
PR1152 cha-1(p1152); concentration: 9.375
  number of L4/adult animals: 0.329
PR1152 cha-1(p1152); concentration: 18.75
  number of L4/adult animals: 0.207
PR1152 cha-1(p1152); concentration: 37.5
  number of L4/adult animals: 0.0255
PR1152 cha-1(p1152); concentration: 75
  number of L4/adult animals: 0.00498
PR1152 cha-1(p1152); concentration: 150
  number of L4/adult animals: 0
PR1152 cha-1(p1152); concentration: 300
  number of L4/adult animals: 0
PR1152 cha-1(p1152); concentration: 600
  number of L4/adult animals: 0
RB2119 acr-23(ok2804); concentration: 9.375
  number of L4/adult animals: 0.95
RB2119 acr-23(ok2804); concentration: 18.75
  number of L4/adult animals: 0.812
RB2119 acr-23(ok2804); concentration: 37.5
  number of L4/adult animals: 0.632
RB2119 acr-23(ok2804); concentration: 75
  number of L4/adult animals: 0.47
RB2119 acr-23(ok2804); concentration: 150
  number of L4/adult animals: 0.13
RB2119 acr-23(ok2804); concentration: 300
  number of L4/adult animals: 0.0225
RB2119 acr-23(ok2804); concentration: 600
  number of L4/adult animals: 0
RP2674 mev-1(tr393); concentration: 9.375
  number of L4/adult animals: 0.783
RP2674 mev-1(tr393); concentration: 18.75
  number of L4/adult animals: 0.942
RP2674 mev-1(tr393); concentration: 37.5
  number of L4/adult animals: 1.04
RP2674 mev-1(tr393); concentration: 75
  number of L4/adult animals: 0.914
RP2674 mev-1(tr393); concentration: 150
  number of L4/adult animals: 0.352
RP2674 mev-1(tr393); concentration: 300
  number of L4/adult animals: 0.0923
RP2674 mev-1(tr393); concentration: 600
  number of L4/adult animals: 0.029
VC731 unc-63(ok1075); concentration: 9.375
  number of L4/adult animals: 1
VC731 unc-63(ok1075); concentration: 18.75
  number of L4/adult animals: 1.03
VC731 unc-63(ok1075); concentration: 37.5
  number of L4/adult animals: 0.996
VC731 unc-63(ok1075); concentration: 75
  number of L4/adult animals: 1.09
VC731 unc-63(ok1075); concentration: 150
  number of L4/adult animals: 1.07
VC731 unc-63(ok1075); concentration: 300
  number of L4/adult animals: 1.02
VC731 unc-63(ok1075); concentration: 600
  number of L4/adult animals: 1.04
